{
  "source": "patent US8506997B2",
  "about": "“Pharmaceutical compound containing silymarin and carbopol, its manufacturing process and its use as a regenerator of the pancreatic tissue and cells of endogenous secretion damaged by diabetes mellitus” (Universidad Autonoma Metropolitana, priority 2002, dated 2013)",
  "type_in_all_cases": "in vivo",
  "key": {"serum glucose": {"test_system": "serum glucose", "experiment": "Determination of serum glucose (ortho-toluidine method) in Alloxan-induced Diabetes Mellitus", "details": "20 days after Alloxan, before starting the treatment with the Silymarin and Carbopol compound", "description": "(§1) The treatment of the Silymarin and Carbopol combined with Alloxan was done in two ways. In the first case, a dose of 200 mg/Kg of the Silymarin and Carbopol compound was administered orally at 6, 24 and 48 hours (two days) after the first dose. In the second case, in addition to the dose mentioned in the first case, the administration was prolonged every 24 hours after the first dose for five more days (seven days). In both cases, the dose of Alloxan was 150 mg/Kg, which was administered subcutaneously one hour after the first dose of the Silymarin and Carbopol compound.\nThe determination of blood glucose was carried out by the Baner method. This consisted in taking 50 μl of serum to which 3.0 ml of ortho-toluidine reagent were added which reacts with aldohexoses and forms […] and a Schiff base, the green color developed has a maximum absorption at 620 nm and is proportional to the quantity of glucose present.\nIn the case of the combined administration of the Silymarin and Carbopol compound with Alloxan, the determination of serum glucose was done before the administration of the drugs and at 3, 5, 15 and 30 days after the treatment. […]"}, "pancreatic tissue": {"test_system": "pancreatic tissue", "experiment": "Histopathological analysis of the pancreatic tissue (HE staining)", "details": "treatment with Alloxan only", "description": "as §1\nThis analysis was done in transversal fragments of pancreas approximately 0.7 cm long corresponding to the head of the organ. Subsequently, by the paraffin embedding technique, 5 μm sections where then obtained, which were stained with the dyes hematoxylin and eosin (HE). This technique consists in: 1) dehydration of the tissue, which is done by passing the tissue through different concentration of alcohol (from 25 to 100%) and then to an alcohol-toluene, toluene-paraffin and paraffin mixture. Once the tissues are dehydrated, blocks are formed with paraffin. 2) Sectioning of the tissue. This is done in a microtome, which is adjusted to the right section thickness of 4 to 6 μm and is placed in a slide. 3) Staining of the sections. This was done with the dyes hematoxylin and eosin. […]"}, "islets of Langerhans": {"test_system": "islets of Langerhans", "experiment": "Immunohistochemical analysis for insulin and glucagon in the islets of Langerhans by confocal microscopy", "details": "treatment with Alloxan only (FIG. 1)", "description": "as §1\nThis analysis is carried out on sections of pancreatic tissue (corresponding to the head of the pancreas). Once the sections have been obtained (described in example 3) they are placed on a slide and the tissue is then deparaffinated and rehydrated. It is begun in pure xylol, with two changes of 10 minutes each. The samples are then passed to a mixture of ethanol-xylol for 10 minutes and afterward to alcohols of different percentages: 100, 90, 80 and 70% for five minutes each. […] At the end of this time, they are flushed with PBS and incubated in a mixture of secondary antibodies coupled with fluorochromes, fluorescein and rhodamine, for one hour at ambient temperature and they are then mounted in a specific medium to preserve the fluorescence. The samples are analyzed by confocal microscopy. […]"}, "glutathione peroxidase": {"test_system": "glutathione peroxidase", "experiment": "Activity of pancreatic antioxidant enzymes: glutathione peroxidase", "details": "pancreas; Alloxan (20 days after its administration)", "description": "(§2) A determination was made of the pancreatic activity of the antioxidant enzymes: superoxide dismutase, glutathione peroxidase and catalase. To do such determination, the pancreas was weighed, it was homogenized with a phosphate buffer 50 mM, it was centrifuged at 3000 rpm, and the supernatant was separated. The activities of the aforementioned enzymes was determined in this.\nGlutathione peroxidase.—This quantification was done by the method of Prasad et al. (1992). This enzyme catalyzes the breakdown of H2O2 by the NADPH. Its activity is measured by the velocity of absorbance change during the conversion of NADPH to NADP^+ and this may be spectrophotometrically registered at […]."}, "superoxide dismutase": {"test_system": "superoxide dismutase", "experiment": "Activity of pancreatic antioxidant enzymes: superoxide dismutase", "details": "pancreas; Alloxan (20 days after its administration)", "description": "as §2\nSuperoxide dismutase.—This quantification was done by the method of Prasad et al. (1992). Superoxide ions are formed by xanthine and xanthine oxidase. These ions react with the tetrazolium blue and they form a colour compound that can be spectrophotometrically quantified at 560 nm. A unit of superoxide dismutase can inhibit the formation of this compound by 50%."}, "catalase": {"test_system": "catalase", "experiment": "Activity of pancreatic antioxidant enzymes: catalase", "details": "pancreas; Alloxan (20 days after its administration)", "description": "as §2\nCatalase.—This quantification was carried out by the Aebi method (1995). This enzyme catalyzes the breakdown of H2O2 and the decomposition velocity of the oxygenated water is measured spectrophotometrically at 240 nm."}},
  "data": [
    {"smiles": "O=C1NC(=O)C(=O)C(=O)N1", "note": "[Alloxan]", "values": [
      {"measurement": "serum glucose concentration above the normal value", "setting": "serum glucose", "value": "approximately 400%"},
      {"measurement": "histopathology of the pancreatic tissue", "setting": "pancreatic tissue", "value": "cellular disorganization with loss of the islets of Langerhans"},
      {"measurement": "pancreatic islet, insulin and glucagon immunostaining", "setting": "islets of Langerhans", "value": "destruction occurred of the pancreatic islet"},
      {"measurement": "Enzymatic activity Glutathione Peroxidase", "setting": "glutathione peroxidase", "value": "0.016 ± .002 μM NADPH/min/mg prot"},
      {"measurement": "Enzymatic activity Superoxide Dismutase", "setting": "superoxide dismutase", "value": "4.3 ± 0.02", "unit": "U/mg protein."},
      {"measurement": "Enzymatic activity Catalase", "setting": "catalase", "value": "0.01 ± 0.002 k/sec/mg of protein"}
    ]}
  ]
}
